In data set [1] the target is cathepsin L (Homo sapiens, UniProt P07711). Kind of data set: biochemical. Format: biochemical.
The target of data set [2] is SARS-CoV-2 PL^Pro (Severe acute respiratory syndrome coronavirus 2, UniProt P0DTD1). Kind of data set: biochemical. The data set is classed as biochemical.
Data set [3] concerns SARS-CoV-2 viral isolate. Format: cell-based. To be noted: 30 µM.
Data set [4] is described as follows: UV–vis stability in biologically relevant media. To be noted: 50 mM acetate buffer pH 5.5 (1% DMSO for a and 1a), 0 and 30 min. The data set is classed as physicochemical. The method, then: The same buffers as for enzymatic assays were used for UV–vis stability testing (50 mM acetate buffer, pH = 5.5, and 50 mM HEPES buffer, pH = 7.4). Pyrithione a and zinc pyrithione 1a were dissolved in DMSO. Mixtures of a dissolved compound in DMSO (1%) and buffer (99%) were filtered through Minisart® Regenerated Cellulose Syringe Filter (25 mm, 0.2 µm). Ruthenium complex 2a was dissolved directly in buffers. After preparation, the spectra were immediately recorded on UV–vis spectrometer with an additional recording after 30 min.

The nature of data set [5]: 1H NMR stability in biologically relevant media. Format: physicochemical. The settings on record: buffers in D2O (1% DMSO-d6 for a and 1a), t = 0 and 30 min. The method, then:
Acetate and HEPES buffers were prepared in D2O. […] Such solutions were further filtered through Minisart® Regenerated Cellulose Syringe Filter (25 mm, 0.2 µm).

In data set [6] the test system is human lung tissue (HLT) cells.
A short description of data set [7]: in vitro. The settings on record: human.
Where [8] appears, read: 100 µM ligand, averages of three measurements.
Where [9] appears, read: pH 5.5, read-out: IC50 cathepsin L.

Entries after “also recorded” stand apart in the source; their conditions may differ. Where two headings read alike, the source gives them in different places.

Sequence of cathepsin L (P07711 114-333): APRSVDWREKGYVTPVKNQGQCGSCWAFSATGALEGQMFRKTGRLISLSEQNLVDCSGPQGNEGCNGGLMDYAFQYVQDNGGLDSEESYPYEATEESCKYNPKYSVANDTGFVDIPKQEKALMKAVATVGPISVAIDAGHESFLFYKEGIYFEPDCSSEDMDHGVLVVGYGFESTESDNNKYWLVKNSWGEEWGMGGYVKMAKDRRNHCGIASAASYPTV

For the compound `On1ccc2ccccc2c1=S` [f, N-hydroxyisoquinoline-1-thione], the “vi/v0 at 100 µM, Cathepsin L (relative reaction rate)” value in data set [1] (setting [8]) is 0.65. Further, the “vi/v0 at 100 µM, PLPro (relative reaction rate)” value in data set [2] (setting [8]) was found to be 0.66.
For `On1ccccc1=S` [a, 1-hydroxy-2(1H)-pyridinethione], in data set [1], the IC50 was greater than 500000 nM and the “vi/v0 at 100 µM, Cathepsin L (relative reaction rate)” value amounted to 1.09. Further, in data set [2], the IC50 was greater than 500000 nM and the “vi/v0 at 100 µM, PLPro (relative reaction rate)” value is 0.88. In addition, in data set [3], the “inhibition of SARS-CoV-2 replication” value is reported as “no effect; also recorded: did not inhibit”. The “UV–vis stability in acetate buffer” value in data set [4] is recorded as “remain stable”. For the same compound, the “1H NMR stability in acetate and HEPES buffers” value in data set [5] is listed as “no structural changes”. In data set [6], the cell survival came to 72.91%. Moreover, in data set [7], the CC50 was greater than 100000 nM and the viability lay within 51.9 to 55.5%.
Consider Zn-(5Me-pth) complex [1d], for which the IC50 came to 440 ± 120 nM in data set [1] (setting [9]) and 220 ± 80 nM in data set [2] (pH 7.4, read-out: IC50 PL^Pro).
Take `Cc1cccn(O)c1=S` [b]: the “vi/v0 at 100 µM, Cathepsin L (relative reaction rate)” value in data set [1] (setting [8]) is on record as 1.05. For the same compound, the “vi/v0 at 100 µM, PLPro (relative reaction rate)” value in data set [2] worked out at 0.50.
For the compound `Cc1ccn(O)c(=S)c1` [c], the “vi/v0 at 100 µM, Cathepsin L (relative reaction rate)” value in data set [1] (setting [8]) was found to be 1.04. The “vi/v0 at 100 µM, PLPro (relative reaction rate)” value in data set [2] (setting [8]) came to 0.60.
Take Zn-(6Me-pth) complex [1e]: the IC50 in data set [1] (setting [9]) is 240 ± 50 nM; in data set [2] (pH 7.4, read-out: IC50 PL^Pro) it was 260 ± 180 nM.
Consider `On1c(=S)ccc2ccccc21` [g], for which the “vi/v0 at 100 µM, Cathepsin L (relative reaction rate)” value in data set [1] (setting [8]) is 0.53. Besides, in data set [2] (setting [8]), the “vi/v0 at 100 µM, PLPro (relative reaction rate)” value is listed as 0.28.
For the compound `Cc1cccc(=S)n1O` [e], in data set [1] (setting [8]), the “vi/v0 at 100 µM, Cathepsin L (relative reaction rate)” value is reported as 1.15. For the same compound, in data set [2], the “vi/v0 at 100 µM, PLPro (relative reaction rate)” value was determined as 0.82.
The corresponding values for `Cc1ccc(=S)n(O)c1` [d] are 1.01 and 0.77.
Regarding `COc1cccn(O)c1=S` [h], in data set [1] (setting [8]), the “vi/v0 at 100 µM, Cathepsin L (relative reaction rate)” value worked out at 1.17. In addition, the “vi/v0 at 100 µM, PLPro (relative reaction rate)” value in data set [2] (setting [8]) came to 0.60.
Regarding Zn-(4Me-pth) complex [1c], the IC50 in data set [1] (setting [9]) was found to be 410 ± 80 nM; in data set [2] (pH 7.4, read-out: IC50 PL^Pro), 540 ± 250 nM.
For the compound “Zn-(N-hydroxyisoquinoline-1-thione) complex [1f]”, in data set [1] (50 mM acetate buffer pH 5.5, 2 µM Z-LR-AMC, 5 µM DTT, 25 °C, mean ± S.E.M. (N = 3), read-out: IC50 cathepsin L), the IC50 is 140 ± 50 nM. Moreover, the “extent of PL^Pro inhibition (in words)” value in data set [2] is on record as “cannot fully inhibit the enzyme”.
